The source of these data is US10221177B2 (HYDRA BIOSCIENCES, INC., priority 2014, dated 2019).

The target in this assay is human TRPA1 (Homo sapiens (Human), UniProt O75762). Kind of assay: In vitro inhibition of human TRPA1, whole cell patch configuration. In kind it is cell-based. Particulars: current activation 10 μM AITC, tested concentrations 320 pM to 3.2 μM, read-out: hTRPA1 IC50. The method, then:
All currents were recorded in whole-cell configuration using EPC-9 and EPC-10 amplifiers and Patchmaster software (HEKA) or similar. […] The standard bath solution contained 150 mM NaCl, 10 mM HEPES, 10 mM glucose, 4.5 mM KCl, 1 mM EGTA, 3 mM MgCl2, with pH adjusted to 7.4 with NaOH. In some instances, 2 mM CaCl2 was added in place of EGTA and the concentration of MgCl2 was reduced to 1 mM.
Data were collected either by continuous recordings at −60 mV or by applying voltage ramps from a holding potential of −40 mV every 4 s. Continuous recordings were collected at 400 Hz and digitally filtered off-line at 10 Hz for presentation. Voltage ramps were applied from −100 mV or −80 mV to +100 mV or +80 mV over the course of 400 ms, and data were collected at 10 kHz and filtered at 2.9 kHz. Inward and outward currents were analyzed from the ramps at −80 and 80 mV, respectively. Liquid junction potential correction was not used.
Solutions were switched using a gravity-fed continuous focal perfusion system. To achieve rapid temperature changes, two temperature control, and perfusion systems were employed simultaneously. […] Temperatures were confirmed using a thermistor (Warner Instruments, TA-29), with temperatures at the recorded cell estimated to be within +/−2° C. of those reported.
The antagonist effects of compounds of Formula (I) against human TRPA1 (“hTRPA1”) in a whole cell patch configuration were evaluated using the in vitro assay described above.

A word on the pIC50: it is the negative decadic logarithm of the IC50, by convention in mol/L.

pIC50: −log10 of the molar value.

human TRPA1, sequence (O75762 whole entry): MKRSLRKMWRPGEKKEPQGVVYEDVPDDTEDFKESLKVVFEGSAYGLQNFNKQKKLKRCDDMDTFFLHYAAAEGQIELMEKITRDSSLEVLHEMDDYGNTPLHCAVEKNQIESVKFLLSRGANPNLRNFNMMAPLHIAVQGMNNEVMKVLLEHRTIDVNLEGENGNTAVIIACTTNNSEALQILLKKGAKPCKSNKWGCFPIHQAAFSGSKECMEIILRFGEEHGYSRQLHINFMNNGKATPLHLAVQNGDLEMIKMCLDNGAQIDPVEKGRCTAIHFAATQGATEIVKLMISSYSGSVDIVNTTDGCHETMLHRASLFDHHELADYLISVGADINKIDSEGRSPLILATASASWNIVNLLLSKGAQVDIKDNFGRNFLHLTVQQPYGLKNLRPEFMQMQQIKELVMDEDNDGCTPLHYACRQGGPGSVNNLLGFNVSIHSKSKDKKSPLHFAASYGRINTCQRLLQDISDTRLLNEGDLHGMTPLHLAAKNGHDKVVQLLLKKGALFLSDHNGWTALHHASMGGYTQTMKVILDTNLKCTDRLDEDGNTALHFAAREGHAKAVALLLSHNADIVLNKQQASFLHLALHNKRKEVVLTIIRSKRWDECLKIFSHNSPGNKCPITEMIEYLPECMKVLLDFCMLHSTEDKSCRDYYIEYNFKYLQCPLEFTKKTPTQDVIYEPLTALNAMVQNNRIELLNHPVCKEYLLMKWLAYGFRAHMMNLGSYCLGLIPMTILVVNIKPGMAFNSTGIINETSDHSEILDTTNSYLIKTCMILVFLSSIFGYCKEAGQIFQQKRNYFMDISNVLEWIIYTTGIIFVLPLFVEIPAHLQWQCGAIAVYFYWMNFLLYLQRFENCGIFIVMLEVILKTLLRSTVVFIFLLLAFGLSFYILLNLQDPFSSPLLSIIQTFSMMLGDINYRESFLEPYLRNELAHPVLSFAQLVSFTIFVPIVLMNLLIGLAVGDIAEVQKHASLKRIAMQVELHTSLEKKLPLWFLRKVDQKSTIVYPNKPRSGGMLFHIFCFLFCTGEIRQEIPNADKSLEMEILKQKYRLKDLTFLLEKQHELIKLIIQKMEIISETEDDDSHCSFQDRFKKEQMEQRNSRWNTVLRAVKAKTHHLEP

Regarding `CCC(=O)Cn1c(=O)c2c(ncn2CC(=O)Nc2cccc(-c3cnc(C(F)(F)F)c(C)c3)n2)n(C)c1=O` [Compound 226, 2-(3-methyl-2,6-dioxo-1-(2-oxobutyl)-2,3-dihydro-1H-purin-7(6H)-yl)-N-(5′-methyl-6′-(trifluoromethyl)-[2,3′-bipyridin]-6-yl)acetamide], the pIC50 is 8.10.

As for `Cn1c(=O)n(Cc2ccccn2)c(=O)c2c1ncn2CC(=O)Nc1cccc(-c2ccc(Cl)cc2)n1` [Compound 188, N-(6-(4-chlorophenyl)pyridin-2-yl)-2-(3-methyl-2,6-dioxo-1-(pyridin-2-ylmethyl)-2,3-dihydro-1H-purin-7(6H)-yl)acetamide], the pIC50 was 7.48.

Consider `CC(=O)Cn1c(=O)c2c(ncn2[C@@H](C)C(=O)Nc2csc(-c3cnc(C)c(C(F)(F)F)c3)n2)n(C)c1=O` [Compound 98, (S)-2-(3-methyl-2,6-dioxo-1-(2-oxopropyl)-2,3-dihydro-1H-purin-7(6H)-yl)-N-(2-(6-methyl-5-(trifluoromethyl)pyridin-3-yl)thiazol-4-yl)propanamide], for which the pIC50 is 8.52.

For `C[C@@H](C(=O)Nc1cncc(-c2cnc(N3CC4C(C3)C4(F)F)nc2)n1)n1cnc2c1c(=O)n(CC#N)c(=O)n2C` (stereo partly drawn) [Compound 60, (2S)-2-(1-(cyanomethyl)-3-methyl-2,6-dioxo-2,3-dihydro-1H-purin-7(6H)-yl)-N-(6-(2-(6,6-difluoro-3-azabicyclo[3.1.0]hexan-3-yl)pyrimidin-5-yl)pyrazin-2-yl)propanamide], the pIC50 is 8.15.

Consider `Cc1cc(Cn2c(=O)c3c(ncn3CC(=O)Nc3cccc(N4CC5CC5C4)n3)n(C)c2=O)no1` (centres unmarked) [Compound 212, N-(6-(3-azabicyclo[3.1.0]hexan-3-yl)pyridin-2-yl)-2-(3-methyl-1-((5-methylisoxazol-3-yl)methyl)-2,6-dioxo-2,3-dihydro-1H-purin-7(6H)-yl)acetamide], for which the pIC50 was 7.21.

Take `Cc1noc(Cn2c(=O)c3c(ncn3[C@@H](C)C(=O)Nc3csc(-c4cnc(C)c(C(F)(F)F)c4)n3)n(C)c2=O)n1` [Compound 108, (S)-2-(3-methyl-1-((3-methyl-1,2,4-oxadiazol-5-yl)methyl)-2,6-dioxo-2,3-dihydro-1H-purin-7(6H)-yl)-N-(2-(6-methyl-5-(trifluoromethyl)pyridin-3-yl)thiazol-4-yl)propanamide]: the pIC50 was 9.00.

Turning to `Cc1noc(Cn2c(=O)c3c(ncn3[C@@H](C)C(=O)Nc3cccc(-c4cnc(N5CC6CC6C5)nc4)n3)n(C)c2=O)n1` (stereo partly drawn) [Compound 167, (2S)—N-(6-(2-(3-azabicyclo[3.1.0]hexan-3-yl)pyrimidin-5-yl)pyridin-2-yl)-2-(3-methyl-1-((3-methyl-1,2,4-oxadiazol-5-yl)methyl)-2,6-dioxo-2,3-dihydro-1H-purin-7(6H)-yl)propanamide], the pIC50 is 8.40.

With `CCC(=O)Cn1c(=O)c2c(ncn2CC(=O)Nc2cccc(-c3cnc(C)c(C(F)(F)F)c3)n2)n(C)c1=O` [Compound 235, 2-(3-methyl-2,6-dioxo-1-(2-oxobutyl)-2,3-dihydro-1H-purin-7(6H)-yl)-N-(6′-methyl-5′-(trifluoromethyl)-[2,3′-bipyridin]-6-yl)acetamide], the pIC50 was 8.70.

With `CC(=O)Cn1c(=O)c2c(ncn2[C@@H](C)C(=O)Nc2cccc(-c3cnc(N4CC5CC5C4)nc3)n2)n(C)c1=O` (stereo partly drawn) [Compound 142, (2S)—N-(6-(2-(3-azabicyclo[3.1.0]hexan-3-yl)pyrimidin-5-yl)pyridin-2-yl)-2-(3-methyl-2,6-dioxo-1-(2-oxopropyl)-2,3-dihydro-1H-purin-7(6H)-yl)propanamide], the pIC50 was 8.15.

As for `Cc1nc2c(c(=O)n(Cc3ccccn3)c(=O)n2C)n1CC(=O)Nc1cccc(-c2cnc(C(F)(F)F)nc2)n1` [Compound 177, 2-(3,8-dimethyl-2,6-dioxo-1-(pyridin-2-ylmethyl)-2,3-dihydro-1H-purin-7(6H)-yl)-N-(6-(2-(trifluoromethyl)pyrimidin-5-yl)pyridin-2-yl)acetamide], the pIC50 is 7.38.

As for `COCC(=O)Cn1c(=O)c2c(ncn2[C@@H](C)C(=O)Nc2csc(-c3cnc(N4CC5C(C4)C5(F)F)nc3)n2)n(C)c1=O` (stereo partly drawn) [Compound 265, (2S)—N-(2-(2-(6,6-difluoro-3-azabicyclo[3.1.0]hexan-3-yl)pyrimidin-5-yl)thiazol-4-yl)-2-(1-(3-methoxy-2-oxopropyl)-3-methyl-2,6-dioxo-2,3-dihydro-1H-purin-7(6H)-yl)propanamide], the pIC50 is 8.52.

On to `C[C@@H](C(=O)Nc1csc(-c2cnc(N3CC4C(C3)C4(F)F)nc2)n1)n1cnc2c1c(=O)n(CC#N)c(=O)n2C` (stereo partly drawn) [Compound 58, (2S)-2-(1-(cyanomethyl)-3-methyl-2,6-dioxo-2,3-dihydro-1H-purin-7(6H)-yl)-N-(2-(2-(6,6-difluoro-3-azabicyclo[3.1.0]hexan-3-yl)pyrimidin-5-yl)thiazol-4-yl)propanamide], for which the pIC50 is 8.70.

For the compound `CC#CCn1c(=O)c2c(ncn2[C@@H](C)C(=O)Nc2csc(-c3cnc(N4CCC[C@H]4C(F)(F)F)nc3)n2)n(C)c1=O` [Compound 268, (S)-2-(1-(but-2-ynyl)-3-methyl-2,6-dioxo-2,3-dihydro-1H-purin-7(6H)-yl)-N-(2-(2-((S)-2-(trifluoromethyl)pyrrolidin-1-yl)pyrimidin-5-yl)thiazol-4-yl)propanamide], the pIC50 is 9.00.

As for `CC(=O)Cn1c(=O)c2c(ncn2CC(=O)Nc2cccc(-c3ccc(Cl)cc3)n2)n(C)c1=O` [Compound 181, N-(6-(4-chlorophenyl)pyridin-2-yl)-2-(3-methyl-2,6-dioxo-1-(2-oxopropyl)-1,2,3,6-tetrahydropurin-7-yl)acetamide], the pIC50 was 7.72.

For the compound `COCC(=O)Cn1c(=O)c2c(ncn2[C@@H](C)C(=O)Nc2cccc(-c3cnc(C(F)(F)F)nc3)n2)n(C)c1=O` [Compound 59, (S)-2-(1-(3-methoxy-2-oxopropyl)-3-methyl-2,6-dioxo-2,3-dihydro-1H-purin-7(6H)-yl)-N-(6-(2-(trifluoromethyl)pyrimidin-5-yl)pyridin-2-yl)propanamide], the pIC50 is 7.35.

As for `C[C@@H](C(=O)Nc1cccc(-c2cnc(C(F)(F)F)nc2)n1)n1cnc2c1c(=O)n(CC1COC1)c(=O)n2C` [Compound 51, (S)-2-(3-methyl-1-(oxetan-3-ylmethyl)-2,6-dioxo-2,3-dihydro-1H-purin-7(6H)-yl)-N-(6-(2-(trifluoromethyl)pyrimidin-5-yl)pyridin-2-yl)propanamide], the pIC50 was below 5.49.

As to `C[C@@H](C(=O)Nc1cncc(-c2cnc(C(F)(F)F)nc2)n1)n1cnc2c1c(=O)n(CC#N)c(=O)n2C` [Compound 22, (S)-2-(1-(cyanomethyl)-3-methyl-2,6-dioxo-2,3-dihydro-1H-purin-7(6H)-yl)-N-(6-(2-(trifluoromethyl)pyrimidin-5-yl)pyrazin-2-yl)propanamide], the pIC50 is 6.69.

For `CC(=O)Cn1c(=O)c2c(ncn2[C@@H](C)C(=O)Nc2ccnc(-c3cnc(N4CC5CC5C4)nc3)n2)n(C)c1=O` (stereo partly drawn) [Compound 143, (2S)—N-(2′-(3-azabicyclo[3.1.0]hexan-3-yl)-2,5′-bipyrimidin-4-yl)-2-(3-methyl-2,6-dioxo-1-(2-oxopropyl)-2,3-dihydro-1H-purin-7(6H)-yl)propanamide], the pIC50 is 7.70.

Consider `CC(C(=O)Nc1cccc(-c2cnc(C(F)(F)F)nc2)n1)n1cnc2c1c(=O)n(CC#N)c(=O)n2C` (centres unmarked) [Compound 10, 2-(1-(cyanomethyl)-3-methyl-2,6-dioxo-2,3-dihydro-1H-purin-7(6H)-yl)-N-(6-(2-(trifluoromethyl)pyrimidin-5-yl)pyridin-2-yl)propanamide], for which the pIC50 was 7.62.

Regarding `Cn1c(=O)n(Cc2ccccn2)c(=O)c2c1ncn2CC(=O)Nc1cccc(-c2cnc(N3CCC[C@H]3C(F)(F)F)nc2)n1` [Compound 189, (S)-2-(3-methyl-2,6-dioxo-1-(pyridin-2-ylmethyl)-2,3-dihydro-1H-purin-7(6H)-yl)-N-(6-(2-(2-(trifluoromethyl)pyrrolidin-1-yl)pyrimidin-5-yl)pyridin-2-yl)acetamide], the pIC50 was 8.70.

As for `CCC(=O)Cn1c(=O)c2c(ncn2[C@@H](C)C(=O)Nc2cccc(-c3cnc(N4CC5CC5C4)cn3)n2)n(C)c1=O` (stereo partly drawn) [Compound 113, (2S)—N-(6-(5-(3-azabicyclo[3.1.0]hexan-3-yl)pyrazin-2-yl)pyridin-2-yl)-2-(3-methyl-2,6-dioxo-1-(2-oxobutyl)-2,3-dihydro-1H-purin-7(6H)-yl)propanamide], the pIC50 was 8.70.

Regarding `Cc1cc(-c2cncc(NC(=O)[C@H](C)n3cnc4c3c(=O)n(Cc3ccon3)c(=O)n4C)n2)cnc1C(F)(F)F` [Compound 137, (S)-2-(1-(isoxazol-3-ylmethyl)-3-methyl-2,6-dioxo-2,3-dihydro-1H-purin-7(6H)-yl)-N-(6-(5-methyl-6-(trifluoromethyl)pyridin-3-yl)pyrazin-2-yl)propanamide], the pIC50 is 7.89.

On to `Cc1nc(Cn2c(=O)c3c(ncn3CC(=O)Nc3csc(-c4cnc(C)c(C(F)(F)F)c4)n3)n(C)c2=O)no1` [Compound 248, 2-(3-methyl-1-((5-methyl-1,2,4-oxadiazol-3-yl)methyl)-2,6-dioxo-2,3-dihydro-1H-purin-7(6H)-yl)-N-(2-(6-methyl-5-(trifluoromethyl)pyridin-3-yl)thiazol-4-yl)acetamide], for which the pIC50 is 8.40.
